{"source": "paper PMC4843002", "about": "“Identification of pyrazolopyridazinones as PDEδ inhibitors” (Nature Communications, 2016)", "key": {"[1]": {"tested_on": "PANC-1", "test": "CellTiter-Glo cell viability", "type": "cell-based, human", "settings": "PANC-1, CellTiter-Glo, n = 10", "method": "(§1) Biochemical and Pharmacological Assays\n(§2) Determination of cell viability using CellTiter-Glo®\n(§3) Cells were seeded on day 1 at 500 cells per well to assure assay linearity and optimal signal intensity. After incubation for 24h in humidified incubator at 37°C, 5% CO2, compounds / DMSO were added at different concentrations. Cells were further incubated for 72 h at 37°C and 5% CO2. Cells treated with the compound vehicle (DMSO) […].\n(§4) At day 5 the CellTiter-Glo® Reagent was prepared according to the instructions of the manufacturer (Promega): The Reagent was mixed 1:1 with cell culture medium.\n(§5) Thereon, mixture and assay plates were equilibrated at room temperature for 20 min.\n(§6) Equal volumes of the reagent-medium-mixture were added to the volume of culture medium present in each well. The plates were mixed at 200 rpm for 2 minutes on an orbital shaker and afterwards incubated at room temperature for 10 minutes.\n(§7) Following incubation the luminescence was recorded on a Victor microplate reader (Perkin Elmer) using a 200 ms integration time. The data was analyzed with Excel using the XLFIT Plugin (dose response Fit 205) for IC50-determination.\n(§8) As quality control the Z´ -factor was calculated from 16 positive and negative control values. Only assay results showing a Z´ -factor ≥ 0.5 were used for further analysis."}, "[2]": {"tested_on": "Panc-Tu-I", "test": "CellTiter-Glo cell viability", "type": "cell-based, human", "method": "as §1, §2, §3, §4, §5, §6, §7, §8"}, "[3]": {"biological_target": "T1, tyrosine hydroxylase (Rattus norvegicus, UniProt P04177)", "T1 construct": "Eurofins Pharma Discovery Services (CEREP diversity panel, outsourced assay)", "T1 sequence (P04177 whole entry)": "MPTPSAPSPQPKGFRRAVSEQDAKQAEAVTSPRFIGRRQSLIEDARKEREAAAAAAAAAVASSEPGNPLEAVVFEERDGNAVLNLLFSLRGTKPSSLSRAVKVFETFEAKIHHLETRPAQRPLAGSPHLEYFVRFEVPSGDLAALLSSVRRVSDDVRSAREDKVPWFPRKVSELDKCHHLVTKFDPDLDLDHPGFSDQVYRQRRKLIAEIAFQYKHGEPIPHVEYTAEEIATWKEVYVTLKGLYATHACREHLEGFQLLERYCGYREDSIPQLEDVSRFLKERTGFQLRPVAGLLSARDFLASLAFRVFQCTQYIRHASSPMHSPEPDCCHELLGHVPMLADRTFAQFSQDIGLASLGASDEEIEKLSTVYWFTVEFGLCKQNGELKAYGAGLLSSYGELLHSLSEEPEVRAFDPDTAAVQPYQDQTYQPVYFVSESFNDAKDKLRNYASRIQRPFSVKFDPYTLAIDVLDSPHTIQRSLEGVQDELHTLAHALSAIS", "test": "Cerep enzyme and cell-based assays", "type": "biochemical", "settings": "read-out: % Inhibition of Control Values"}, "[4]": {"settings": "Homo sapiens, 72 h, read-out: IC50 anti-proliferative activity"}}}
{"compound": "c1ccc(Cn2c(-c3ccc(OC[C@H](C4CCNCC4)n4c(-c5ccccc5)nc5ccccc54)cc3)nc3ccccc32)cc1", "note": "[Deltarasin, reference compound]", "values": [{"measurement": "IC50", "setting": "[1]; [4]", "result": 6.67, "unit": "µM"}, {"measurement": "Hill coefficient", "setting": "[1]", "result": -10.8}, {"measurement": "IC50", "setting": "[2]; [4]", "result": 4.83, "unit": "µM"}, {"measurement": "Hill coefficient", "setting": "[2]; Panc-Tu-I, CellTiter-Glo, n = 14", "result": -5.3}, {"measurement": "inhibition at 5 µM", "setting": "[3]", "result": 24, "unit": "%"}]}
